Test results reported in the supplement of paper PMC10307832.

How the values were obtained:
Assay in all cases: relative viability (nuclei count vs DMSO), 5 days (fraction); higher = more cells survive
Cediranib + Lapatinib = compound: COc1cc2c(Oc3ccc4[nH]c(C)cc4c3F)ncnc2cc1OCCCN1CCCC1 [Cediranib] + CS(=O)(=O)CCNCc1ccc(-c2ccc3ncnc(Nc4ccc(OCc5cccc(F)c5)c(Cl)c4)c3c2)o1 [Lapatinib] (partner 2 µM)
Outline: (§1)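 Lung cancer cell lines were pin-tool dosed in 1536-well plates on the day after seeding, with either a lone drug or a fixed anchor-drug dose plus five library-drug doses (not always all listed) in √10 steps. Nuclei were counted on 4× images after 5 days. Relative viability is the ratio of treated-well to vehicle-well nuclei counts, with each value a median of duplicate plates.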

Decitabine + AZD7762 = compound: Nc1ncn([C@H]2C[C@H](O)[C@@H](CO)O2)c(=O)n1 [Decitabine] + NC(=O)Nc1cc(-c2cccc(F)c2)sc1C(=O)N[C@H]1CCCNC1 [AZD7762] (partner 0.2 µM)
Outline: as §1

Decitabine + Palbociclib = compound: Nc1ncn([C@H]2C[C@H](O)[C@@H](CO)O2)c(=O)n1 [Decitabine] + CC(=O)c1c(C)c2cnc(Nc3ccc(N4CCNCC4)cn3)nc2n(C2CCCC2)c1=O [Palbociclib] (partner 0.5 µM)
Outline: as §1

Cediranib + Phenformin = compound: COc1cc2c(Oc3ccc4[nH]c(C)cc4c3F)ncnc2cc1OCCCN1CCCC1 [Cediranib] + N=C(N)NC(=N)NCCc1ccccc1 [Phenformin] (partner 250 µM)
Outline: as §1

Cell Line	relative viability (Cediranib + Lapatinib; first compound 0.04 µM)	relative viability (Cediranib + Lapatinib; first compound 0.1265 µM)	relative viability (Cediranib + Lapatinib; first compound 0.4 µM)	relative viability (Cediranib + Lapatinib; first compound 1.265 µM)	relative viability (Cediranib + Lapatinib; first compound 4 µM)	relative viability (Decitabine + AZD7762; first compound 0.04 µM)	relative viability (Decitabine + AZD7762; first compound 0.1265 µM)	relative viability (Decitabine + AZD7762; first compound 0.4 µM)	relative viability (Decitabine + AZD7762; first compound 1.265 µM)	relative viability (Decitabine + AZD7762; first compound 4 µM)	relative viability (Decitabine + Palbociclib; first compound 0.04 µM)	relative viability (Decitabine + Palbociclib; first compound 0.1265 µM)	relative viability (Decitabine + Palbociclib; first compound 0.4 µM)	relative viability (Decitabine + Palbociclib; first compound 1.265 µM)	relative viability (Decitabine + Palbociclib; first compound 4 µM)	relative viability (Cediranib + Phenformin; first compound 0.04 µM)	relative viability (Cediranib + Phenformin; first compound 0.1265 µM)	relative viability (Cediranib + Phenformin; first compound 0.4 µM)	relative viability (Cediranib + Phenformin; first compound 1.265 µM)	relative viability (Cediranib + Phenformin; first compound 4 µM)
NCI-H1651	0.819	0.919	0.825	0.668	0.855	0.43	0.446	0.336	0.341	0.355	0.522	0.508	0.515	0.389	0.403	0.321	0.327	0.277	0.321	0.311
RERF-LC-KJ	0.94	0.751	0.783	0.836	0.954	0.822	0.95	0.439	0.75	0.832	1.02	1.02	0.404	0.633	0.636	0.42	0.442	0.386	0.476	0.426
NCI-H1755	1.14	0.778	1.01	1.05	0.941	0.634	0.463	0.56	0.467	0.419	0.461	0.495	0.424	0.431	0.407	0.528	0.519	0.616	0.618	0.677
NCI-H2126	0.749	0.595	0.715	0.55	0.741	0.874	0.938	0.577	0.713	0.591	0.367	0.354	0.313	0.36	0.372	0.515	0.526	0.53	0.516	0.538
EPLC-272H	0.834	–	0.862	0.77	0.671	0.255	0.195	–	0.158	0.221	0.353	0.316	–	0.326	0.272	0.307	–	0.334	–	0.253
NCI-H1975	1.06	1.26	0.801	0.905	0.835	0.451	0.451	0.441	0.465	0.403	0.395	0.46	0.285	0.231	0.301	0.421	0.415	0.394	0.459	0.426
NCI-H3122	1.05	0.985	1.01	0.98	1.05	0.927	0.823	0.529	0.466	0.5	0.2	0.213	0.183	0.181	0.191	0.374	–	0.364	0.36	0.363
BEN	0.945	–	0.665	0.598	0.681	0.691	0.791	0.55	0.586	0.664	0.497	0.443	0.455	0.435	0.42	0.266	–	0.258	0.236	0.253
NCI-H1915	1.01	0.731	0.924	0.969	0.983	0.296	0.266	0.217	0.195	0.201	0.328	0.209	0.22	0.194	0.192	0.371	0.331	0.372	0.374	0.364
NCI-H650	0.956	0.444	0.913	0.8	0.938	0.775	0.618	0.427	0.388	0.346	0.268	0.243	0.198	0.191	0.182	0.497	0.388	0.475	0.476	0.437
NCI-H460	1.05	1.01	0.905	1	0.639	0.576	0.593	0.361	0.134	0.105	0.174	0.289	0.185	0.0847	0.0625	0.528	0.576	0.527	0.512	0.56
HCC-827	0.203	–	0.178	0.194	0.208	0.113	0.169	0.188	0.173	0.193	0.231	0.311	0.294	0.262	0.181	0.412	–	0.389	0.385	0.356
NCI-H322M	0.578	0.915	0.562	0.617	0.52	0.546	0.619	0.478	0.445	0.501	0.439	0.485	0.554	0.479	0.463	0.879	0.862	0.728	0.849	0.8
NCI-H1666	0.678	0.339	0.554	0.541	0.69	0.826	0.872	0.696	0.787	0.763	0.692	0.684	0.675	0.553	0.647	0.564	0.488	0.524	0.548	0.579
NCI-H1793	0.838	0.693	0.654	–	0.742	0.37	0.591	0.258	0.154	0.169	0.339	0.329	0.381	0.301	0.31	0.231	0.32	0.39	–	0.393
NCI-H1437	0.87	0.791	0.764	0.842	1.03	1.1	0.962	0.758	0.61	0.391	0.343	0.321	0.247	0.265	0.28	0.317	0.285	0.332	0.363	0.369
NCI-H358	0.478	0.666	0.454	0.419	0.466	0.554	0.527	0.413	0.272	0.328	0.179	0.118	0.114	0.13	0.135	0.336	0.41	0.299	0.222	0.358

Cell Line	relative viability (Cediranib + Lapatinib; first compound 0.04 µM)	relative viability (Cediranib + Lapatinib; first compound 0.1265 µM)	relative viability (Cediranib + Lapatinib; first compound 0.4 µM)	relative viability (Cediranib + Lapatinib; first compound 1.265 µM)	relative viability (Cediranib + Lapatinib; first compound 4 µM)	relative viability (Decitabine + AZD7762; first compound 0.04 µM)	relative viability (Decitabine + AZD7762; first compound 0.1265 µM)	relative viability (Decitabine + AZD7762; first compound 0.4 µM)	relative viability (Decitabine + AZD7762; first compound 1.265 µM)	relative viability (Decitabine + AZD7762; first compound 4 µM)	relative viability (Decitabine + Palbociclib; first compound 0.04 µM)	relative viability (Decitabine + Palbociclib; first compound 0.1265 µM)	relative viability (Decitabine + Palbociclib; first compound 0.4 µM)	relative viability (Decitabine + Palbociclib; first compound 1.265 µM)	relative viability (Decitabine + Palbociclib; first compound 4 µM)	relative viability (Cediranib + Phenformin; first compound 0.04 µM)	relative viability (Cediranib + Phenformin; first compound 0.1265 µM)	relative viability (Cediranib + Phenformin; first compound 0.4 µM)	relative viability (Cediranib + Phenformin; first compound 1.265 µM)	relative viability (Cediranib + Phenformin; first compound 4 µM)
NCI-H1792	0.792	0.628	0.863	0.875	0.735	0.616	0.731	0.478	0.242	0.19	0.753	0.76	0.646	0.595	0.512	0.237	0.41	0.197	0.322	0.284
NCI-H1355	1.01	0.693	0.955	0.798	1.03	0.442	0.473	0.376	0.267	0.241	0.374	0.345	0.329	0.275	0.277	0.441	0.456	0.427	0.442	0.408
NCI-H2170	0.295	0.277	0.243	0.232	0.268	0.412	0.52	0.554	0.268	0.245	0.314	0.341	0.334	0.256	0.227	0.373	0.284	0.403	0.406	0.419
NCI-H2347	1.07	0.512	0.916	0.909	0.964	0.734	0.67	0.69	0.398	0.433	0.462	0.417	0.411	0.423	0.437	0.34	0.236	0.383	0.386	0.41
A-427	1.03	–	0.938	0.897	0.981	0.464	0.512	0.425	0.278	0.285	0.451	0.466	0.378	0.431	0.381	0.346	–	0.228	0.308	0.253
HCC-366	1.08	0.479	0.983	0.957	1.23	0.208	0.276	0.114	0.0535	0.0424	0.306	0.244	0.175	0.0803	0.0669	0.536	0.594	0.614	0.738	0.663
HCC-78	1	0.703	0.634	0.662	0.695	0.549	0.605	0.565	0.474	0.466	0.483	0.554	0.487	0.436	0.423	0.712	0.709	0.649	0.607	0.718
PC-14	0.308	0.461	0.297	0.301	0.404	0.194	0.281	0.124	0.159	0.116	0.435	0.36	0.264	0.112	0.098	0.593	0.756	0.508	0.517	0.567
NCI-H2087	1.08	0.825	1.01	0.984	1.07	0.853	0.719	0.58	0.493	0.499	0.204	0.265	0.204	0.202	0.221	0.382	0.45	0.402	0.452	0.546
HOP-62	1.15	–	0.879	1.01	1.35	0.361	0.297	0.143	0.117	0.147	0.326	0.327	0.195	0.136	0.273	0.703	0.607	0.647	0.632	0.741
EKVX	0.19	0.23	0.196	0.227	0.203	0.505	0.611	0.549	0.394	0.33	0.3	0.372	0.405	0.259	0.235	0.212	0.177	0.221	0.259	0.233
EMC-BAC-2	0.925	0.804	0.88	0.816	0.868	–	1.15	0.908	0.911	0.846	–	0.519	0.523	0.467	0.457	0.507	0.583	0.535	0.484	0.436
HARA	0.762	0.994	0.7	0.708	0.703	0.353	0.464	0.165	0.203	0.315	0.238	0.244	0.253	0.223	0.207	0.331	–	0.391	0.429	0.454
LU99A	1.14	–	0.936	0.877	1.06	0.373	0.376	0.335	0.32	0.29	0.39	0.434	0.445	0.321	0.291	0.726	0.589	0.75	0.734	0.924
NCI-H1944	0.969	0.8	0.78	0.705	0.908	0.331	0.289	0.29	0.218	0.231	0.331	0.32	0.313	0.294	0.281	0.211	0.223	0.167	0.205	0.235
LK-2	1.01	0.728	0.842	0.952	0.732	0.299	0.37	0.288	0.256	0.14	0.655	0.66	0.327	0.236	0.238	0.38	0.175	0.35	0.418	0.29
